The target in this test is T1, STING (Mus musculus, UniProt Q3TBT3).
T1 sequence (Q3TBT3 1-378): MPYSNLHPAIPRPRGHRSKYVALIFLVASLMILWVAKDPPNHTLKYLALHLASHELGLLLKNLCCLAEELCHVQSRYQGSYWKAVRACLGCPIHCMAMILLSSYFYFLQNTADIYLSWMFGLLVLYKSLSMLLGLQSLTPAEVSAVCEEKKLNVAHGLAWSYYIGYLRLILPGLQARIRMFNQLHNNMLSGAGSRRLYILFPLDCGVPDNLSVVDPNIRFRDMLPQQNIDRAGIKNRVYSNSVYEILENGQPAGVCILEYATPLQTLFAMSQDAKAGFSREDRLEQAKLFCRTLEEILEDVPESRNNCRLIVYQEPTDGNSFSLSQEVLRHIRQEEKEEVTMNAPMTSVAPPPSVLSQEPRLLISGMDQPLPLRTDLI
The experiment in a line: IFN-beta luciferase reporter in HEK293T cells transfected with STING, alone or with a cyclic dinucleotide synthase. The arrangement: expressed in transfected cells; host or cells: HEK293T. Type of test: cell-based. As to conditions: wild-type HEK293T; STING expressed alone or in conjunction with cdG-Syn; 0.01-5µM; 16 h. The protocol: Reporter activity was measured 16 h after compound treatment. A nonlinear regression analysis was performed. […] Cytokine levels were normalized to DMSO-treated control cells. […] Nuclei were stained with DAPI. […] Depicted genes were measured by RT-qPCR. […] 16 h later Luciferase activity was measured. […] Flag-STING was immunoprecipitated and analysed by autoradiography.
HEK293T cells expressing murine STING with an N-terminal mCherry-tag ^28 were transfected using GeneJuice (Millipore) with a construct encoding for cyclic di-GMP synthase in conjunction with an IFN-• firefly luciferase reporter plasmid. 3 h after transfection cells were seeded in […] (Corning) coated with library compounds. For each compounds, a 40 nl volume was selected to obtain a concentration of 10 µM in the assay plates. The amount of DMSO in each well was normalised to 0.1%. After overnight treatment, cells were lysed in lysis buffer (25 mM Tris-phosphate (pH 7.8), 2 mM DTT, 2 mM 1,2-diaminocyclohexane-N,N,N',N'-tetraacetic acid, 10% glycerol, 1% Triton® X-100) for 20 min followed by the addition of firefly luciferase. Reporter activity was measured using a Tecan Infinite plate reader. The screen was performed using on ∼ 20.000 compounds from a chemically diverse compound collection available at the BSF core facility at EPFL.
In these cells, transient transfection of vectors encoding for cyclic di-GMP synthase (cdG-Syn) and an IFN-• reporter leads to robust induction of firefly luciferase activity. We used this system to perform a high-throughput chemical screen with a library of ∼ 20.000 small molecule compounds (Fig. 6b). To increase the selectivity of candidate compounds against the STING pathway, hits from the primary screen were counter-screened for their effect on RIG-I-driven activation of the IFN-• reporter. […] To further validate the two small molecules, we treated wild-type HEK293T cells with C-178 and C-176, in which STING was either expressed alone or in conjunction with cdG-Syn. […] We next conducted a limited structure-activity relationship (SAR) analysis. Since both C-178 and C-176 share a characteristic nitrofuran moiety, we prepared analogues of C-176/8 in which this structural motif was substituted (Fig. 1c).

In the case of `O=C(Nc1ccc(I)cc1)c1ccc([N+](=O)[O-])o1` [C-176, N-(4-iodophenyl)-5-nitro-2-furamide], the “half-maximal inhibitory concentration (IC50) values, IFN-• reporter activity” value is given as “nanomolar”.

The values are drawn from EP3502102A1, “STING INHIBITORS” (ECOLE POLYTECHNIQUE FEDERALE DE LAUSANNE (EPFL), priority 2017, dated 2019).
